In general, melting point refers to the temperature, or range, at which the solid turns liquid. Take `CC(C)(C)OC(=O)C(Cl)=CC1C(C(=O)O)C1(C)C` (stereo not given): the melting point was found to be 65 °C.

In turn, `NC(=O)c1ccc(C(N)=O)c(CC(O)CO)c1` (stereo not given) gave a melting point of 194 °C.

In the case of `COc1ccc(Sc2ccc3c(c2)CC[C@H]2NC(=O)CC[C@]32C)cc1`, the melting point lay within 194 to 196 °C.

Regarding `COC1(c2cc(F)cc(S(=O)(=O)c3ccc(/C(C)=N/O)cc3)c2)CCOCC1`, the melting point is 180 to 181 °C.

On to `COc1ccc(C2=NN(c3ccc(C4=NNC(=O)CC4C)cc3)C(=O)C3CCCCC23)cc1OC1CCCC1` (stereo not given), for which the melting point was 134 to 141 °C.

Take `COc1cc(C(C)C)c2c(c1)S(=O)(=O)N(COC(=O)c1c(C)ccnc1C)C2=O`: the melting point fell in the range of 132 to 134 °C.

For the molecule `CC1ON(C)C(=O)C1=Cc1cc(C(C)(C)C)c(O)c(C(C)(C)C)c1` (stereo not given), the melting point is 147 to 150 °C.

Take `Cc1cc2c(-c3cccc(Br)c3)c(CC(=O)Nc3ccc(F)cc3C(F)(F)F)c(=O)oc2cc1Cl`: the melting point was 222 to 223 °C.

In turn, `CC(C)(C)C(NC(=O)Cc1ccc2cccnc2c1)NC(=NC#N)Nc1cccc2ncccc12` (stereo not given) displayed a melting point of 147 to 148 °C.

`CC(C)(C)Nc1c(NCc2cccc(C(F)(F)F)c2)c(=O)c1=O`: the melting point was 237 to 239 °C.

For the molecule `CCCCCCC(=O)C[C@H](O)C(=O)O`, the melting point lay in the range of 69 to 70 °C.

Turning to `CN1C(=O)C(C)(C)N=C(c2ccccc2F)c2cc([N+](=O)[O-])cc(Cl)c21`, the melting point lay in the range of 237 to 238 °C.

Turning to `Cc1cc(C(=O)Nc2ccc(C(=O)O)cc2)no1`, the melting point lay within 267 to 270 °C.

Turning to `CN1CCC(c2c(O)cc(O)c3c(=O)cc(-c4ccccc4Cl)oc23)C1Cn1ccnc1` (stereo not given), the melting point lay within 249 to 250 °C.

Molecule `O=C1CCN(c2ccc(C(=O)O)cc2)CCN1` showed a melting point of 285 to 286 °C.

`CC(C(=O)O)c1ccc2c(c1)C(=O)Cc1cc([N+](=O)[O-])ccc1S2` (stereo not given) gave a melting point of 210 to 211 °C.

`CCCCCCCCCCC1(CCCCCCCCCC)c2cc(Br)ccc2-c2ccc(I)cc21` came in with a melting point of 43 to 45 °C.

Consider `CCOC(=O)c1nc(S)n(-c2ccccc2)c1C(=O)OCC`, for which the melting point lay within 145 to 146 °C.

In turn, `Cn1nc(C2CCN(C#N)CC2)c2ccc(F)cc21` had a melting point of 133 to 136 °C.

Molecule `Nc1ccc(-c2cccnc2)c(C(F)(F)F)c1` showed a melting point of 92 to 93 °C.

As to `CC1(C)OC[C@@H]([C@@H]2CC(=O)N2)O1`, the melting point was in the range of 91 to 92 °C.

`COc1ccc(/C=C(/C(=O)O)c2cc(OC)c(OC)c(OC)c2)cc1` came in with a melting point of 187 to 189 °C.

`COc1cccn2nc(S(=O)(=O)Nc3c(F)cccc3F)nc12` gave a melting point of 254 to 255 °C.

As to `O=CC1=CC2=C(OC1)c1ccccc1S(=O)(=O)N2`, the melting point was in the range of 108 to 110 °C.

Turning to `COc1c(OC)c(OC(C)=O)c2cc(OCCc3ccccc3)ccc2c1OC(C)=O`, the melting point is 70 to 71 °C.

`O=c1ccc(-c2c(-c3ccccc3)nn3ccccc23)nn1C1CCCCC1=Cc1nnn[nH]1` (stereo not given) came in with a melting point of 129 to 131 °C.

`COc1cc(/C=C/C(=O)Nc2ccccc2C(=O)O)ccc1OC1CCCCC1` displayed a melting point of 90 to 92 °C.

The molecule `O[C@@H]1c2ccccc2C=C[C@H]1N1CCCC1` (relative stereo) yielded a melting point of 140 to 141 °C.

For the molecule `NS(=O)(=O)c1ccc(-c2oc(Cl)nc2-c2ccccc2)cc1`, the melting point was in the range of 158 to 159 °C.

The molecule `CCCCc1oc2ccccc2c1C(=O)N(C)Cc1ccc2cc(O)ccc2c1` returned a melting point of 110 to 113 °C.

In turn, `CC(=O)OC1C(C)=C(C)C(=O)N1c1nc2ccc(F)cc2s1` (stereo not given) returned a melting point of 180 to 183 °C.

Regarding `CCOc1cc2c(Nc3cc(OC)c(Cl)cc3Cl)c(C#N)cnc2cc1OCCC1CCN(C)CC1`, the melting point was 174 to 176 °C.

For `O=C(CCl)NCC(O)(c1ccccc1)c1ccccc1`, the melting point lay within 178 to 180 °C.

The molecule `Nc1cccc2c1ccn2-c1ccnc(N[C@H]2CC[C@H](O)CC2)n1` yielded a melting point of 219 to 220 °C.

For the molecule `COc1cc(C=CC(=O)Nc2cnc3c(C)cc(C)cc3c2-c2ccccc2Cl)ccc1OC(C)=O`, the melting point lay in the range of 174 to 175 °C.

Molecule `CC(C)(C)OC(=O)NC1(c2ccccc2)CCN(CCC2(c3ccc(F)c(F)c3)CN(C(=O)c3ccccc3)CCO2)CC1` (stereo not given) had a melting point of 107 °C.

Molecule `CC1(Cn2c(=O)oc3ccc(Br)cc32)Cn2cc([N+](=O)[O-])nc2O1` (stereo not given) registered a melting point of 243 to 246 °C.

Consider `CS(=O)(=O)c1ccc(-c2cnn(-c3ccc(F)c(F)c3)c(=O)c2-c2cccc(F)c2)cc1`, for which the melting point lay in the range of 182 to 185 °C.

Molecule `CC(C)NS(=O)(=O)Cc1ccc(N)cc1` yielded a melting point of 105 to 107 °C.

`COc1ccc(CSc2c(O)cc(-c3ccccc3)oc2=O)cc1` showed a melting point of 168 to 170 °C.

The molecule `Cc1nc(C(C)O)c[nH]1` (stereo not given) had a melting point of 107 to 111 °C.

Molecule `CC(C)Cn1c(=O)n(C)c(=O)c2c(OCCCO)c(Cc3cccnc3)sc21` gave a melting point of 111 to 112 °C.

In turn, `CSc1nnc(-c2ccco2)s1` came in with a melting point of 128 °C.

`COc1ccc(-c2c(C#N)nn(-c3c(Cl)cc(C(F)(F)F)cc3Cl)c2N)cc1`: the melting point stood at 222 °C.

Molecule `O=C1NC(=O)C(c2c[nH]c3ccccc23)C1c1cc2c3c(ccn3CCC2)c1` (stereo not given) yielded a melting point of 141 to 145 °C.

As to `Cc1nc(=O)c(O)c(-c2ccc(Cc3ccc(F)cc3)cn2)[nH]1`, the melting point is more than 300 °C.

Turning to `C#CC1(O)c2ccccc2COc2ccccc21` (stereo not given), the melting point was 93 to 94 °C.

As for `CC(=O)Nc1ccc(OCC(O)CN(C)C)c(NC(C)=O)c1` (stereo not given), the melting point was 118 to 120 °C.

The molecule `FC(F)(F)c1cccc(Oc2ccnc(-c3ccc(Cl)cc3)n2)c1` registered a melting point of 92 °C.

Take `CC(C)CCCC(=O)OC1c2ccccc2C(=O)N1c1ccc2ccc(Br)nc2n1` (stereo not given): the melting point came out at 136 °C.

On to `Cc1cc(Oc2ncc(C(F)(F)F)cc2Cl)nn1C(=O)Nc1ccccc1`, for which the melting point lay within 116 to 118 °C.

In turn, `CCCCCCC(CO)n1cnc(C(N)=O)c1` (stereo not given) came in with a melting point of 97.5 to 100 °C.

The molecule `CNc1c(F)cc2c(=O)c(C(=O)O)cn(-c3nc(N)c(F)cc3F)c2c1F` came in with a melting point of 270 to 273 °C.

For the molecule `Cc1oc(-c2ccc(F)cc2)cc1C(C)O` (stereo not given), the melting point fell in the range of 50 to 52 °C.

`CC(=O)NC[C@H]1CN(c2ccc(C(=O)c3cnc4ccc(Cl)cn34)cc2)C(=O)O1` showed a melting point of 234 to 235 °C.

`CCCCOC(=O)NS(=O)(=O)c1ccccc1-c1ccc(Cn2c(CCC)nc(SC)c2C(=O)O)cc1` showed a melting point of 202 to 204 °C.

In the case of `CCN1C(=O)CCCc2cc(Nc3ncc(Cl)c(Nc4ccccc4OC)n3)c(OC)cc21`, the melting point was 78 to 80 °C.

In the case of `CCOC(=O)C(CC)(CC)CCCS(N)(=O)=O`, the melting point is 66 to 67 °C.

In turn, `CC(=O)OC1CCCCC1n1cnc2cc(Cl)c(Cl)cc21` (stereo not given) had a melting point of 145 to 147 °C.

On to `CC(=O)N(C)Cc1ccc(OCc2ccc(F)cc2)cc1`, for which the melting point fell in the range of 82 to 83 °C.

On to `Cc1c(CO)cccc1NC(=O)CN1C[C@@H](C)N(c2ncnc3sccc23)[C@@H](C)C1`, for which the melting point lay within 203 to 204 °C.

Take `COC(=O)C1=C(C)NC(=S)N(C(=O)OC(C)C)C1c1cccc([N+](=O)[O-])c1` (stereo not given): the melting point lay within 157 to 158 °C.

`O=S(=O)(c1ccccc1)n1ccc2c(OCC3CO3)cccc21` (stereo not given) had a melting point of 96 °C.

Take `CCCCCCCCCCCCCCCC(=O)N[C@H]1CCCNC(=O)C1`: the melting point was 99 to 100 °C.

`O=C(O)C(NC(=O)C(F)(F)F)c1ccc(Cl)cc1` (stereo not given) showed a melting point of 170 to 172 °C.

Regarding `C=CC(C)=CC=CC(C)=CC(=O)OCC`, the melting point was 52 to 53 °C.

Molecule `CC(C)ON=Cc1cc(-n2c(=O)cc(C(F)(F)F)n(C)c2=O)ccc1Cl` registered a melting point of 105 to 107 °C.

On to `COc1ccn(-c2nc(C)c(C(=O)NCc3cccnc3)s2)c(=O)c1`, for which the melting point fell in the range of 200 to 202 °C.

Regarding `CCOC(=O)NN=COC(N)CC` (stereo not given), the melting point was determined as 100 °C.

`CN1CCC(c2c[nH]c3ccc(C4CN=CS4)cc23)CC1` (stereo not given) came in with a melting point of 158 to 160 °C.

Turning to `CCc1[nH]n(C2CCCC2)c2nc(-c3ccccc3OCCCN3CCOCC3)nc(=O)c1-2`, the melting point is 220 to 221 °C.

On to `COC(=O)CCc1cc(O)cc2cc(-c3ccc(O)cc3)oc12`, for which the melting point fell in the range of 167 to 170 °C.

Turning to `O=C(c1ccccc1)c1ccc2nc(Br)c(C(F)(F)F)nc2c1`, the melting point is 124 to 126 °C.

With `c1ccc(-c2cccc3[nH]c4c(c23)CCNCC4)cc1`, the melting point is more than 250 °C.

`CCC(=O)N(C(=O)CC)c1c(I)cc(Br)cc1S(=O)(=O)Cl` displayed a melting point of 127 to 132 °C.

Molecule `CC(C)(CO)CCCNC(=O)NCCCC(C)(C)CO` had a melting point of 81 to 82 °C.

As for `COC(=O)CC1(OCc2ccccc2)C=CC=C(c2ccccc2)C1` (stereo not given), the melting point was 50 to 52 °C.

As for `Cc1nc(Cl)c2c(c1O)COC2(c1ccccc1)c1ccccc1`, the melting point was determined as 240 °C.

The molecule `COc1cc2ccc(-c3ccc(C(C)C)cc3)cc2oc1=O` showed a melting point of 127 °C.

Turning to `CC(C)OC(=O)c1cc(-n2c(=O)c3c(n(C)c2=O)CCC3)c(F)cc1Cl`, the melting point lay in the range of 111 to 113 °C.

Regarding `ClC1=NC(C2CC2)Nc2cscc21` (stereo not given), the melting point fell in the range of 86.5 to 88.5 °C.

For `CSC(=NC(=O)CS(C)(=O)=O)N(C)N=Cc1ccccc1`, the melting point came to 150 °C.

In turn, `C[C@H](OC(=O)NCC(F)(F)C(F)(F)F)C(=O)N[C@@H]1C(=O)N(C)c2cc(F)ccc2O[C@@H]1C` displayed a melting point of 148 to 150 °C.

Regarding `CC(C)(C)c1cc(C2=CCCCC2)c(O)c(C(C)(C)C)c1`, the melting point lay within 102 to 104 °C.

For `Cc1cc(C#N)cc(C(=O)Nc2cccc(Cl)c2)n1`, the melting point came out at 148 °C.

The molecule `COC(=O)c1nc(C2CC2)nc(N)c1Cl` returned a melting point of 147 to 148 °C.

The molecule `CS(=O)(=O)CCCCC(C1CCCCC1)S(=O)(=O)c1ccc(Cl)cc1` (stereo not given) came in with a melting point of 104 to 106 °C.

In turn, `Cc1oc(-c2ccccc2)nc1CCc1ccc(COc2ccccc2CC(=O)O)cc1` gave a melting point of 130 to 131 °C.

Molecule `COC(=O)c1cccc(Cn2c(C(=O)Nc3nc(-c4cc(OC)c(C)cc4OC)c(CCC4CCCCC4)s3)cc3cc(C)cc(C)c32)c1` gave a melting point of 219 to 220 °C.

`O=C(c1ccc(Br)cc1)N1CCN(c2ccncc2)CC1` showed a melting point of 128 to 129 °C.

(Values after a melting point compilation (Tetko et al.; mined from patent text by program, amines drawn as free bases though some values may be those of a salt).)
